The compounds below were run against ACC2 (Homo sapiens, UniProt O00763) (assay: In vitro inhibition of ACC2 activity, ADP-Glo Kinase Analysis). Conditions: 1.1 nM ACC2, 20 μM acetyl-CoA, 15 μM ATP.
Format: biochemical
Description: ADP-Glo™ Kinase Analysis Kit (Promega) is used for the in vitro analysis of the inhibitory effect of the present compound on ACC1 or ACC2. ADP-Glo™ Kinase Analysis is a kinase detection analysis of luminescence method. ADP is produced in the process of catalyzing the substrate by ACC. ADP is converted into ATP which is then converted into light by Ultra-Glo™ luciferase. ADP is quantified by detecting the light signal, thus the enzyme activity can be measured by quantification of the ADP amount produced during the enzyme reaction. The analysis is carried out in two steps: in the first step, after the kinase reaction, a portion of ADP-Glo™ reagent equal in volume to the kinase reaction system is added to terminate the reaction and consume the remaining ATP; in the second step, a kinase detection reagent is added, which not only converts ADP into ATP, but also uses a coupled luciferase/luciferin reaction to detect newly synthesized ATP.
a. 10 mM compound stock solution (the present compound was dissolved in 100% DMSO to prepare the 10 mM stock solution) was diluted 50-fold to 200 μM with 100% DMSO, and then diluted in equal proportions (1:3) in a 96-well dilution plate (249944, Nunc). The gradient concentrations of the compound were 200 μM, 66.67 μM, 22.22 μM, 7.41 μM, 2.47 μM, 0.823 μM, 0.274 μM, 0.0914 μM, 0.0305 μM, 0.0102 μM, 0.00339 μM and 0.00113 μM.
b. 4.5 μL ACC1 working solution (BPS bioscience) (2.22 nM) was added to each well of a 384-well test plate (6007290, Perkin Elmer).
c. 0.5 μL of the serially diluted compound (prepared in step a) was added to each well of the 384-well test plate, which was centrifuged at 1000 rpm for 1 min and then incubated at room temperature for 15 min. […]
g. The chemiluminescence signal was detected with Perkin Elmer EnVision 2104. […]
The average value of the positive and negative control well and the standard deviation were calculated. The inhibition percentage was calculated according to the following formula: 100×[1−(compound−average value of positive control)/(average value of negative control-average value of positive control)]. […]

Sequence of ACC2 (O00763 whole entry): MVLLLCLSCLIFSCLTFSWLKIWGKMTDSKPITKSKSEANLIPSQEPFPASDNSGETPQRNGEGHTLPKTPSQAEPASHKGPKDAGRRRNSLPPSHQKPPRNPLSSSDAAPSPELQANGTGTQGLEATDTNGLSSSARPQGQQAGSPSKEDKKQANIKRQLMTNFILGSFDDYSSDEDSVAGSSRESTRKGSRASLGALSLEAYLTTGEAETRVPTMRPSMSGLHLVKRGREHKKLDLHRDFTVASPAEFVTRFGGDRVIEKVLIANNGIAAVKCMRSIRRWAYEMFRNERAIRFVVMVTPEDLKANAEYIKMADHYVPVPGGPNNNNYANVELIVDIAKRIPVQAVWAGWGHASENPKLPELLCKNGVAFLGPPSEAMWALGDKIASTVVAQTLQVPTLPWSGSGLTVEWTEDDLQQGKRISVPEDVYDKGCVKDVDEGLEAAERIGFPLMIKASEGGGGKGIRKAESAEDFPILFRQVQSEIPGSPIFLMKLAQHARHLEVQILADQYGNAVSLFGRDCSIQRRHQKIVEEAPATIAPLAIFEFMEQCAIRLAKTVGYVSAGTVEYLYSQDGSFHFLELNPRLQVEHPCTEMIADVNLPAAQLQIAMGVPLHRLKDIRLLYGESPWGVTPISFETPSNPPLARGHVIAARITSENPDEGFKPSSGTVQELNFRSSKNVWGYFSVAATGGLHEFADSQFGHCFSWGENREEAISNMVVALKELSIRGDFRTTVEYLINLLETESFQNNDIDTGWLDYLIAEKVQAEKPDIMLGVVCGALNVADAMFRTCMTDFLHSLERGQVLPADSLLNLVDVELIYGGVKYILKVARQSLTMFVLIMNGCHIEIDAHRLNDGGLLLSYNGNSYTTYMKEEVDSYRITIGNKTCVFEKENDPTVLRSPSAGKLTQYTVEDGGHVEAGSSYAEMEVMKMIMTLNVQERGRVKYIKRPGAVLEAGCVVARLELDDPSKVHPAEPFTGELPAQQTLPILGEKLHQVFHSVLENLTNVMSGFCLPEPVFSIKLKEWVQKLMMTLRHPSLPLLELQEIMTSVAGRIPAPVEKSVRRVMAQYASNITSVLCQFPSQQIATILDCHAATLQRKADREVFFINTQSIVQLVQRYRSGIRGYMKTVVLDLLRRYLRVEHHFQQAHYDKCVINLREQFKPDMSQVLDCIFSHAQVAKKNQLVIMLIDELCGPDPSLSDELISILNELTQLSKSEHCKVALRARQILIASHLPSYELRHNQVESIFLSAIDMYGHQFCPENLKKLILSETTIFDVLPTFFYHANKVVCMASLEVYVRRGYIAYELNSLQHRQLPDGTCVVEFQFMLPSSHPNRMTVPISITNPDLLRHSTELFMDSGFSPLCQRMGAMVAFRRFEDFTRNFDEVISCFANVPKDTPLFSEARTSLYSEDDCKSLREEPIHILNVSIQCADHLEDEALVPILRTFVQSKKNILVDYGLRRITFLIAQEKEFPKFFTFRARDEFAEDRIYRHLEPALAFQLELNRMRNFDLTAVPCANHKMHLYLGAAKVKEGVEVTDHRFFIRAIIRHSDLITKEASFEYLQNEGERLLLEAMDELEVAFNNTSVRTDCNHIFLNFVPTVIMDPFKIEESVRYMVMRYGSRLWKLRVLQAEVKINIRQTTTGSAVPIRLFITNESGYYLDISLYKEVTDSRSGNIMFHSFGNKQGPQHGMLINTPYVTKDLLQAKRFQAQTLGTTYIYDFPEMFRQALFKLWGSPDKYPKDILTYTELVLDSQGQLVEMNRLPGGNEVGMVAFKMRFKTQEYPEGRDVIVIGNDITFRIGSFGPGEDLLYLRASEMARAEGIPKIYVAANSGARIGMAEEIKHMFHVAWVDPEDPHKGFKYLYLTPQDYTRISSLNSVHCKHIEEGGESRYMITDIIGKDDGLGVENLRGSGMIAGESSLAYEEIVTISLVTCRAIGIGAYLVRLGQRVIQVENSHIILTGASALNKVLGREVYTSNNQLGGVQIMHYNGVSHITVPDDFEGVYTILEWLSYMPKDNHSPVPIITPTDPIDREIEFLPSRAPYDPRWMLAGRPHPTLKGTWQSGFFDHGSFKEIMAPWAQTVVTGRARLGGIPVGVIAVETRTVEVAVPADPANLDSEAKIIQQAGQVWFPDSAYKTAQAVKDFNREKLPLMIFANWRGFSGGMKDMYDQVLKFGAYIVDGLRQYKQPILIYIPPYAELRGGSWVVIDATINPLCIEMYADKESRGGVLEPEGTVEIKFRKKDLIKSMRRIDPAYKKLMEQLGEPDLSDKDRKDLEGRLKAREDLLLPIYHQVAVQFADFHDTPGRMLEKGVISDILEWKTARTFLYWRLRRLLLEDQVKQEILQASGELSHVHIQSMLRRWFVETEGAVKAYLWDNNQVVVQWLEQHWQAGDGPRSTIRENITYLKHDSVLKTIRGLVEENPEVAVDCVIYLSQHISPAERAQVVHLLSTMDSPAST

Row | IC50 [nM] | Structure (SMILES)
1 | < 10 | COc1ccccc1C(CN1C(=O)C2(CCC(C(=O)O)C2)C(=O)c2c1sc(-c1ncco1)c2C)OC1CCOCC1 (single isomer, unassigned) [Compound 5b, 7′-(2-(2-methoxyphenyl)-2-((tetrahydro-2H-pyran-4-yl)oxy)ethyl)-3′-methyl-2′-(oxazol-2-yl)-4′,6′-dioxo-6′,7′-dihydro-4′H-spiro[cyclopentane-1,5′-thieno[2,3-b]pyridine]-3-carboxylic Acid]
2 | < 10 | COc1ccccc1C(CN1C(=O)C2(CC(C(=O)O)C2)C(=O)c2c1sc(-c1ncco1)c2C)OC1CCOCC1 (single isomer, unassigned) [Compound 8d, 7′-(2-(2-methoxyphenyl)-2-((tetrahydro-2H-pyran-4-yl)oxy)ethyl)-3′-methyl-2′-(oxazol-2-yl)-4′,6′-dioxo-6′,7′-dihydro-4′H-spiro[cyclobutane-1,5′-thieno[2,3-b]pyridine]-3-carboxylic Acid]
3 | < 10 | COc1ccccc1[C@H](CN1c2sc(-c3ncco3)c(C)c2C(=O)[C@]2(C[C@H](C(=O)O)C2)C1=O)OC1CCOCC1 [Compound 8c, 7′-(2-(2-methoxyphenyl)-2-((tetrahydro-2H-pyran-4-yl)oxy)ethyl)-3′-methyl-2′-(oxazol-2-yl)-4′,6′-dioxo-6′,7′-dihydro-4′H-spiro[cyclobutane-1,5′-thieno[2,3-b]pyridine]-3-carboxylic Acid]

From patent US20220041616A1, “SPIRO COMPOUND AND MEDICAL USES THEREOF” (The National Institutes of Pharmaceutical R&D Co., Ltd., priority 2018, published 2022)
